These are literature values, as cited in patent US20130028992A1, “Herbal-Based Solution for Treating Symptoms of Nasal Conditions” (priority 2011, published 2013).

For series [1], the system named is platelet aggregation. The following applies: case of a heart attack.
Series [2] deals with 25 strains of yeast, bacteria and mold.

Turning to `CC(=O)Oc1ccccc1C(=O)O` [aspirin], the “time required to take effect” value in series [1] is recorded as “thirty”.

`C=CCN=C=S` [allyl isothiocyanate]: the “antimicrobial effect of vapor” value in series [2] was “can combat 25 strains of yeast, bacteria and mold to varying degrees”.
